Source: patent publication US9518018B2, “3-alkoxy, thioalkyl and amino-4-amino-6-(substituted)picolinates and their use as herbicides” (Dow AgroSciences LLC, priority 2011, dated 2016)
Where two headings read alike, the source gives them in different places.

Experiments:
[1] = test system: EPHHL: wild poinsettia (Euphorbia heterophylla); experiment: Post-Emergent Test I herbicidal activity; type: in vivo; conditions: post-emergence, 336 h, read-out: Visual Growth Reduction (%)-14 Days after Application EPHHL; for pest or weed control at 140 g/ha: Table 3, 140 g ai/ha
Summary of the method: (§1)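 Seedlings are kept at 23–29 °C day / 22–28 °C night with ~15 h light and subirrigated after spraying to avoid wash-off. Compound in a crop-oil concentrate and Triton X-155 carrier is applied at 187 L/ha; 14-d visual injury feeds probit-derived growth-reduction doses (GR20/50/80).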

ZEAMX: corn (Zea mays) = experiment: Post-Emergent Test I herbicidal activity; type: in vivo; conditions: for GR20 ZEAMX: Table 4, growth reduction of 20% of plant growth; for GR20 ZEAMX / GR50 ZEAMX / GR80 ZEAMX: 14 days after application, probit analysis; for GR50 ZEAMX: Table 4, growth reduction of 50% of plant growth; for GR80 ZEAMX: Table 4, growth reduction of 80% of plant growth; for pest or weed control at 280 g/ha / pest or weed control at 17.5 g/ha / pest or weed control at 35 g/ha / pest or weed control at 70 g/ha / pest or weed control at 140 g/ha / pest or weed control at 8.75 g/ha: Zea mays, post-emergence, 336 h, read-out: Visual Growth Reduction (%)-14 Days after Application ZEAMX; for pest or weed control at 17.5 g/ha: Table 4, 17.5 g ai/ha; for pest or weed control at 35 g/ha: Table 4, 35 g ai/ha; for pest or weed control at 70 g/ha: Table 4, 70 g ai/ha; for pest or weed control at 8.75 g/ha: Table 4, 8.75 g ai/ha
Summary of the method: as §1

[2] = test system: CYPES: yellow nutsedge (Cyperus esculentus); experiment: Post-Emergent Test I herbicidal activity; type: in vivo; conditions: post-emergence, 336 h, read-out: Visual Growth Reduction (%)-14 Days after Application CYPES; for pest or weed control at 140 g/ha: Table 3, 140 g ai/ha
Summary of the method: as §1

[3] = test system: ORYSA: rice (Oryza sativa); experiment: Post-Emergent Test I herbicidal activity; type: in vivo; conditions: post-emergence, 336 h, read-out: Visual Growth Reduction (%)-14 Days after Application ORYSA; for pest or weed control at 140 g/ha: Table 3, 140 g ai/ha
Summary of the method: (§2)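 Greenhouse-grown seedlings (peat-based mix, pH 6.0–6.8; ~15 h photoperiod, 23–29 °C day) were sprayed post-emergence at first/second true-leaf stage with compound in acetone/DMSO/aqueous crop-oil–surfactant carrier at 187 L/ha, using a twofold rate series. Injury was scored visually after 14 d (0–100%); GR20/GR50/GR80 derived by probit analysis.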

[4] = test system: ABUTH: velvetleaf (Abutilon theophrasti); experiment: Post-Emergent Test I herbicidal activity; type: in vivo; conditions: for pest or weed control at 280 g/ha / pest or weed control at 17.5 g/ha / pest or weed control at 35 g/ha / pest or weed control at 70 g/ha / pest or weed control at 140 g/ha / pest or weed control at 8.75 g/ha: Abutilon theophrasti, post-emergence, 336 h, read-out: Visual Growth Reduction (%)-14 Days after Application ABUTH; for pest or weed control at 17.5 g/ha: Table 4, 17.5 g ai/ha; for pest or weed control at 35 g/ha: Table 4, 35 g ai/ha; for pest or weed control at 70 g/ha: Table 4, 70 g ai/ha; for GR20 ABUTH: Table 4, growth reduction of 20% of plant growth; for GR20 ABUTH / GR50 ABUTH / GR80 ABUTH: 14 days after application, probit analysis; for GR50 ABUTH: Table 4, growth reduction of 50% of plant growth; for GR80 ABUTH: Table 4, growth reduction of 80% of plant growth; for pest or weed control at 8.75 g/ha: Table 4, 8.75 g ai/ha
Summary of the method: as §1

[5] = test system: ECHCG: barnyardgrass (Echinochloa crus-galli); experiment: Post-Emergent Test I herbicidal activity; type: in vivo; conditions: post-emergence, 336 h, read-out: Visual Growth Reduction (%)-14 Days after Application ECHCG; for pest or weed control at 140 g/ha: Table 3, 140 g ai/ha
Summary of the method: as §2

[6] = test system: CHEAL: lambsquarters (Chenopodium album); experiment: Post-Emergent Test I herbicidal activity; type: in vivo; conditions: for pest or weed control at 17.5 g/ha: Table 4, 17.5 g ai/ha; for pest or weed control at 35 g/ha: Table 4, 35 g ai/ha; for pest or weed control at 70 g/ha: Table 4, 70 g ai/ha; for GR20 CHEAL: Table 4, growth reduction of 20% of plant growth; for GR20 CHEAL / GR50 CHEAL / GR80 CHEAL: 14 days after application, probit analysis; for GR50 CHEAL: Table 4, growth reduction of 50% of plant growth; for GR80 CHEAL: Table 4, growth reduction of 80% of plant growth; for pest or weed control at 8.75 g/ha: Table 4, 8.75 g ai/ha
Summary of the method: as §1

[7] = Chenopodium album, post-emergence, 336 h, read-out: Visual Growth Reduction (%)-14 Days after Application CHEAL
[8] = Chenopodium album, post-emergence, 336 h, Table 3, 140 g ai/ha, read-out: Visual Growth Reduction (%)-14 Days after Application CHEAL

Structure (SMILES)	GR20 ZEAMX (ZEAMX: corn (Zea mays)) [g ai/ha]	GR50 ZEAMX (ZEAMX: corn (Zea mays)) [g ai/ha]	GR80 ZEAMX (ZEAMX: corn (Zea mays)) [g ai/ha]	pest or weed control at 17.5 g/ha (ZEAMX: corn (Zea mays)) [%]	pest or weed control at 35 g/ha (ZEAMX: corn (Zea mays)) [%]	pest or weed control at 70 g/ha (ZEAMX: corn (Zea mays)) [%]	pest or weed control at 140 g/ha (ZEAMX: corn (Zea mays); Table 4, 140 g ai/ha) [%]	pest or weed control at 17.5 g/ha [4] [%]	pest or weed control at 35 g/ha [4] [%]	pest or weed control at 70 g/ha [4] [%]	pest or weed control at 140 g/ha ([4]; Table 4, 140 g ai/ha) [%]	GR20 ABUTH [4] [g ai/ha]	GR50 ABUTH [4] [g ai/ha]	GR80 ABUTH [4] [g ai/ha]	pest or weed control at 17.5 g/ha [6, 7] [%]	pest or weed control at 35 g/ha [6, 7] [%]	pest or weed control at 70 g/ha [6, 7] [%]	GR20 CHEAL [6] [g ai/ha]	GR50 CHEAL [6] [g ai/ha]	GR80 CHEAL [6] [g ai/ha]	also measured
COC(=O)c1nc(Cl)cc(N)c1OC [Compound 1, methyl 4-amino-6-chloro-3-methoxypicolinate]	>280	>280	>280	0	0	0	0	40	85	95	95	10.5	19.4	35.9	90	90	95	<17.5	<17.5	<17.5	pest or weed control at 280 g/ha ([1]; Table 3, 280 g ai/ha): 100%; pest or weed control at 280 g/ha (ZEAMX: corn (Zea mays); Table 3, 280 g ai/ha): 0%; pest or weed control at 280 g/ha (ZEAMX: corn (Zea mays); Table 4, 280 g ai/ha): 0%; pest or weed control at 280 g/ha ([2]; Table 3, 280 g ai/ha): 0%; pest or weed control at 280 g/ha ([3]; Table 3, 280 g ai/ha): 0%; pest or weed control at 280 g/ha ([4]; Table 3, 280 g ai/ha): 100%; pest or weed control at 280 g/ha ([4]; Table 4, 280 g ai/ha): 100%; pest or weed control at 280 g/ha ([5]; Table 3, 280 g ai/ha): 0%; pest or weed control at 280 g/ha ([6]; Chenopodium album, post-emergence, 336 h, Table 3, 280 g ai/ha, read-out: Visual Growth Reduction (%)-14 Days after Application CHEAL): 100%; pest or weed control at 140 g/ha ([6]; Chenopodium album, post-emergence, 336 h, Table 4, 140 g ai/ha, read-out: Visual Growth Reduction (%)-14 Days after Application CHEAL): 100%; Visual Growth Reduction (%)-14 Days after Application CHEAL ([6]; Table 4, 280 g ai/ha): 100%; melting point: 78 to 79 °C
COC(=O)c1nc(-c2ccc(Cl)cc2F)cc(N)c1OC [Compound 6, Methyl 4-amino-6-(4-chloro-2-fluorophenyl)-3-methoxypicolinate]	132	>140	>140	0	0	10	20	75	80	85	85	<8.75	6.42	38.1	100	100	100	<8.75	<8.75	<8.75	pest or weed control at 140 g/ha [1]: 100%; pest or weed control at 140 g/ha (ZEAMX: corn (Zea mays); Table 3, 140 g ai/ha): 0%; pest or weed control at 8.75 g/ha (ZEAMX: corn (Zea mays)): 0%; pest or weed control at 140 g/ha [2]: 20%; pest or weed control at 140 g/ha [3]: 5%; pest or weed control at 140 g/ha ([4]; Table 3, 140 g ai/ha): 60%; pest or weed control at 8.75 g/ha [4]: 50%; pest or weed control at 140 g/ha [5]: 0%; pest or weed control at 140 g/ha [6, 8]: 100%; pest or weed control at 8.75 g/ha [6, 7]: 90%; Visual Growth Reduction (%)-14 Days after Application CHEAL ([6]; Table 4, 140 g ai/ha): 100%; melting point: 139 to 144 °C
COC(=O)c1nc(-c2ccc(Cl)c(OC)c2F)c(F)c(N)c1OC [Compound 34]	–	–	–	–	–	–	–	–	–	–	–	–	–	–	–	–	–	–	–	–	pest or weed control at 140 g/ha [1]: 100%; pest or weed control at 140 g/ha (ZEAMX: corn (Zea mays); Table 3, 140 g ai/ha): 90%; pest or weed control at 140 g/ha [2]: 100%; pest or weed control at 140 g/ha [3]: 10%; pest or weed control at 140 g/ha ([4]; Table 3, 140 g ai/ha): 100%; pest or weed control at 140 g/ha [5]: 100%; pest or weed control at 140 g/ha [6, 8]: 100%; melting point: 133.5 to 135.5 °C
COc1c(C(=O)O)nc(-c2ccc(Cl)c(OC)c2F)c(F)c1N [Compound 45, 4-amino-6-(4-chloro-2-fluoro-3-methoxyphenyl)-5-fluoro-3-methoxypicolinic acid]	<8.75	12.4	>140	50	55	60	65	100	100	100	100	<8.75	<8.75	<8.75	100	100	100	<8.75	<8.75	<8.75	pest or weed control at 140 g/ha [1]: 100%; pest or weed control at 140 g/ha (ZEAMX: corn (Zea mays); Table 3, 140 g ai/ha): 65%; pest or weed control at 8.75 g/ha (ZEAMX: corn (Zea mays)): 50%; pest or weed control at 140 g/ha [2]: 100%; pest or weed control at 140 g/ha [3]: 0%; pest or weed control at 140 g/ha ([4]; Table 3, 140 g ai/ha): 100%; pest or weed control at 8.75 g/ha [4]: 90%; pest or weed control at 140 g/ha [5]: 100%; pest or weed control at 140 g/ha [6, 8]: 100%; pest or weed control at 8.75 g/ha [6, 7]: 90%; Visual Growth Reduction (%)-14 Days after Application CHEAL ([6]; Table 4, 140 g ai/ha): 100%; melting point: 143 to 146 °C
COc1c(C(=O)O)nc(-c2ccc(Cl)cc2)c(F)c1N [Compound 47]	<8.75	12.6	74.1	55	75	80	85	95	95	100	100	<8.75	<8.75	<8.75	100	100	100	<8.75	<8.75	<8.75	pest or weed control at 140 g/ha [1]: 100%; pest or weed control at 140 g/ha (ZEAMX: corn (Zea mays); Table 3, 140 g ai/ha): 85%; pest or weed control at 8.75 g/ha (ZEAMX: corn (Zea mays)): 40%; pest or weed control at 140 g/ha [2]: 100%; pest or weed control at 140 g/ha [3]: 45%; pest or weed control at 140 g/ha ([4]; Table 3, 140 g ai/ha): 100%; pest or weed control at 8.75 g/ha [4]: 90%; pest or weed control at 140 g/ha [5]: 100%; pest or weed control at 140 g/ha [6, 8]: 100%; pest or weed control at 8.75 g/ha [6, 7]: 90%; Visual Growth Reduction (%)-14 Days after Application CHEAL ([6]; Table 4, 140 g ai/ha): 100%
